Like-named read-outs stand apart in the source and are kept apart here.
Key:
KRAS WT = KRAS WT (Homo sapiens (Human), UniProt P01116+P62937); assay: Ras-Raf (BRAF RBD) disruption / FRET / MOA assay, KRAS WT; type: biochemical; settings: read-out: IC50* KRAS WT FRET data
Summary of the method: (§1)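 Ternary complex formation (Ras–compound–cyclophilin A) displacing BRAF RBD, monitored by TR-FRET. Three hours at 25° C with compound (top 30 μM final), then 1.5 h with the labelled antibodies. Lower ratio than DMSO indicates disruption; IC50 reported.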

K-Ras G12C = K-Ras G12C (Homo sapiens (Human), UniProt P01116+P62937, G12C); assay: Ras-Raf (BRAF RBD) disruption / FRET / MOA assay, KRAS G12C; type: biochemical; settings: KRAS G12C; Ras-Raf disruption/FRET/MOA assay; read-out: IC50* KRAS G12C FRET data
Summary of the method: as §1

KRAS G12S = KRAS G12S (Homo sapiens (Human), UniProt P01116+P62937, G12S); assay: Ras-Raf (BRAF RBD) disruption / FRET / MOA assay, KRAS G12S; type: biochemical; settings: Ras-Raf disruption/FRET/MOA assay; class symbols; read-out: KRAS G12S FRET data IC50
Summary of the method: as §1

NRAS G12C = NRAS G12C (Homo sapiens (Human), UniProt P01111+P62937, G12C); assay: Ras-Raf (BRAF RBD) disruption / FRET / MOA assay, NRAS G12C; type: biochemical; settings: read-out: IC50* NRAS G12C FRET data
Summary of the method: as §1

K-Ras G13C = K-Ras G13C (Homo sapiens (Human), UniProt P01116+P62937, G13C); assay: Ras-Raf (BRAF RBD) disruption / FRET / MOA assay, KRAS G13C; type: biochemical; settings: KRAS G13C; Ras-Raf disruption/FRET/MOA assay; read-out: IC50* KRAS G13C FRET data
Summary of the method: as §1

NCI-H358 (K-Ras G12C) = assay: CellTiter-Glo cell viability assay, NCI-H358; type: cell-based, human; settings: NCI-H358, 5-day treatment, class symbols, read-out: Additional H358 Cell Viability assay data (K-Ras G12C, IC50)
Summary of the method: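 Viability of K-Ras mutant lines is measured by ATP luminescence after five days of compound treatment. Percent of DMSO control is calculated and dose-response data are fitted with a four-parameter logistic equation.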

KRAS G12V = KRAS G12V (Homo sapiens (Human), UniProt P01116+P62937, G12V); assay: Ras-Raf (BRAF RBD) disruption / FRET / MOA assay, KRAS G12V; type: biochemical; settings: read-out: IC50* KRAS G12V FRET data
Summary of the method: as §1

[1] = test system: NCI-H358 cells (K-Ras G12C); assay: Potency assay: pERK in NCI-H358 cells; type: cell-based, human; settings: Homo sapiens, NCI-H358; H358 KRAS G12C; read-out: pERK EC50
Summary of the method: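 4 h cpd, 37 °C; 10-pt 3-fold series, 10 mM DMSO top stock, duplicates. Readout pERK: AlphaLISA SureFire Ultra or In-Cell Western (IR-800CW secondary, DRAQ5 DNA stain). IC50, 4-PL fit vs log conc.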

KRAS G12D = KRAS G12D (Homo sapiens (Human), UniProt P01116+P62937, G12D); assay: Ras-Raf (BRAF RBD) disruption / FRET / MOA assay, KRAS G12D; type: biochemical; settings: Ras-Raf disruption/FRET/MOA assay; class symbols; read-out: KRAS G12D FRET data IC50
Summary of the method: as §1

KRAS G13D = KRAS G13D (Homo sapiens (Human), UniProt P01116+P62937, G13D); assay: Ras-Raf (BRAF RBD) disruption / FRET / MOA assay, KRAS G13D; type: biochemical; settings: read-out: IC50* KRAS G13D FRET data
Summary of the method: as §1

NRAS G12C, sequence (P01111 whole entry G12C): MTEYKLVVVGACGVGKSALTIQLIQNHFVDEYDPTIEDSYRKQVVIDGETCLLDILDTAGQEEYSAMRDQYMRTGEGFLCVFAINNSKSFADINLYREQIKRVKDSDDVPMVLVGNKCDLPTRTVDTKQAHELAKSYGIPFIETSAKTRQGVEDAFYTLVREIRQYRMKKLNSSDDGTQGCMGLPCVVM
NRAS G12C, sequence (P62937 whole entry): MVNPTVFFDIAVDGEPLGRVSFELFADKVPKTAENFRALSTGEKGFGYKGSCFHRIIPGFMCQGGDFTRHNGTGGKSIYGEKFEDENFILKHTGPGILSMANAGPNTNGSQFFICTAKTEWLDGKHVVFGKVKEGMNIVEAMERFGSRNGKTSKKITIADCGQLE
KRAS G12V, sequence (P01116-2 other isoform, or with tags, fused parts or gaps G12V): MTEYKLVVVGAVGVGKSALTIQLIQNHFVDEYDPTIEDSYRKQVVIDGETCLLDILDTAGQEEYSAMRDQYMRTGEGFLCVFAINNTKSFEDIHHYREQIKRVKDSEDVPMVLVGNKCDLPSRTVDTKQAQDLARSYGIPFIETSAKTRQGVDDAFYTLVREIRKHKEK
KRAS G12V, sequence (P62937 whole entry): as the sequence (P62937 whole entry) above
KRAS G13D, sequence (P01116-2 other isoform, or with tags, fused parts or gaps G13D): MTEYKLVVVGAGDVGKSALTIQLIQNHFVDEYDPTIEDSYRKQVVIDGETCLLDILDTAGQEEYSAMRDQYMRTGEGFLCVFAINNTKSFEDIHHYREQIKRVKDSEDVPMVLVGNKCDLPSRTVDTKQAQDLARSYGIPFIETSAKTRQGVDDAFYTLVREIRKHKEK
KRAS G13D, sequence (P62937 whole entry): as the sequence (P62937 whole entry) above
KRAS WT, sequence (P01116-2 other isoform, or with tags, fused parts or gaps): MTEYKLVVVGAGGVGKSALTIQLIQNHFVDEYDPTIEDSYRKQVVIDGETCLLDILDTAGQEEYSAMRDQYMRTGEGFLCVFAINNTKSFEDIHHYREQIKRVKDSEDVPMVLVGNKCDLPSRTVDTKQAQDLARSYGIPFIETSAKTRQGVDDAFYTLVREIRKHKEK
KRAS WT, sequence (P62937 whole entry): as the sequence (P62937 whole entry) above
K-Ras G12C, sequence (P01116-2 other isoform, or with tags, fused parts or gaps G12C): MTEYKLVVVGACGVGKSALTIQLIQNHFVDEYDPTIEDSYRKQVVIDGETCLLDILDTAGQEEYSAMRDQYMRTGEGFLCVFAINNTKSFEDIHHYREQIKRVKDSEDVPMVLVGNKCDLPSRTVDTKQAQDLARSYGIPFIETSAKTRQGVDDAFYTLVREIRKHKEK
K-Ras G12C, sequence (P62937 whole entry): as the sequence (P62937 whole entry) above
K-Ras G13C, sequence (P01116-2 other isoform, or with tags, fused parts or gaps G13C): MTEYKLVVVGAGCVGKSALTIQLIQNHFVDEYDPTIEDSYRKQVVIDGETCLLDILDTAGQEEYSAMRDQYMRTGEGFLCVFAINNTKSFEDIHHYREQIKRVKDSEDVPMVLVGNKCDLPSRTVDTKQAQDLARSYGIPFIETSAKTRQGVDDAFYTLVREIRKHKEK
K-Ras G13C, sequence (P62937 whole entry): as the sequence (P62937 whole entry) above
KRAS G12S, sequence (P01116-2 other isoform, or with tags, fused parts or gaps G12S): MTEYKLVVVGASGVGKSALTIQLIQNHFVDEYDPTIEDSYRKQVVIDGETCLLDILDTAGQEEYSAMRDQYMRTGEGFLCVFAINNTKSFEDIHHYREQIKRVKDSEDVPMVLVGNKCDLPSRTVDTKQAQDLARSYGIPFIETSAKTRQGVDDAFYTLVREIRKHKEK
KRAS G12S, sequence (P62937 whole entry): as the sequence (P62937 whole entry) above
KRAS G12D, sequence (P01116-2 other isoform, or with tags, fused parts or gaps G12D): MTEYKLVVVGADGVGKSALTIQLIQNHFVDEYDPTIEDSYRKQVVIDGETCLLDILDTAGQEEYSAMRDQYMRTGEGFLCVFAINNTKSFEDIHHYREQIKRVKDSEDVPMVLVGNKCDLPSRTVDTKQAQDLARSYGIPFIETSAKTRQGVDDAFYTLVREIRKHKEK
KRAS G12D, sequence (P62937 whole entry): as the sequence (P62937 whole entry) above

Row | Compound | IC50 (KRAS WT) | IC50 (K-Ras G12C) | IC50 (KRAS G12S) | IC50 (NRAS G12C) | IC50 (K-Ras G13C) | IC50 (NCI-H358 (K-Ras G12C); Homo sapiens, NCI-H358, 120 h) | IC50 (KRAS G12V) | EC50 [1] | IC50 (KRAS G12D) | IC50 (KRAS G13D) | IC50 (NCI-H358 (K-Ras G12C))
1 | C=CC(=O)N1C[C@@H](C)[C@H](C(=O)N(C)[C@H](C(=O)N[C@H]2Cc3cccc(c3)-c3ccc4c(c3)c(c(-c3cccnc3[C@H](C)OC)n4CC)CC(C)(C)COC(=O)[C@@H]3CCCN(N3)C2=O)C(C)C)C1 (atropisomer, axis not shown) [Example A497] | 1000 to 10000 nM | 100 to 1000 nM | > 10000 nM | 100 to 1000 nM | 100 to 1000 nM | 10 to 100 nM | > 10000 nM | < 5 µM | > 10 µM | > 10 µM | 
2 | CCn1c(-c2cccnc2[C@H](C)OC)c2c3cc(ccc31)-c1cccc(c1)C[C@H](NC(=O)[C@H](C(C)C)N(C)C(=O)[C@H]1CCN(C(=O)C#CC3(N(C)C)CN(C)C3)C1)C(=O)N1CCC[C@H](N1)C(=O)OCC(C)(C)C2 (atropisomer, axis not shown) [Example A499] | 1000 to 10000 nM | 10 to 100 nM | 1000 to 10000 nM | 10 to 100 nM | 1000 to 10000 nM | 10 to 100 nM | 1000 to 10000 nM | < 5 µM | 1 to 10 µM | 1 to 10 µM | 
3 | C=CC(=O)N1CC[C@](F)(C(=O)N(C)[C@H](C(=O)N[C@H]2Cc3cccc(c3)-c3ccc4c(c3)c(c(-c3cccnc3[C@H](C)OC)n4CC)CC(C)(C)COC(=O)[C@@H]3CCCN(N3)C2=O)C(C)C)C1 (atropisomer, axis not shown) [Example A501] | 100 to 1000 nM | 10 to 100 nM | 1000 to 10000 nM | 10 to 100 nM | 100 to 1000 nM | 10 to 100 nM | 1000 to 10000 nM | < 5 µM | 1 to 10 µM | 1 to 10 µM | 
4 | CC#CC(=O)N1CC[C@]2(CCN([C@H](C(=O)N[C@H]3Cc4nc(cs4)-c4ccc5c(c4)c(c(-c4cccnc4[C@H](C)OC)n5CC)CC(C)(C)COC(=O)[C@@H]4CCCN(N4)C3=O)C(C)C)C2=O)C1 (atropisomer, axis not shown) [Example A511] | 1000 to 10000 nM | 100 to 1000 nM | 1000 to 10000 nM | 100 to 1000 nM | 1000 to 10000 nM | < 10 nM | 1000 to 10000 nM | < 5 µM | > 10 µM | 1 to 10 µM | 
5 | C=CC(=O)N1CC[C@H](C(=O)N(C)[C@H](C(=O)N[C@H]2Cc3cccc(c3)-c3ccc4c(c3)c(c(-c3cccnc3[C@@H]3CCCO3)n4CC)CC(C)(C)COC(=O)[C@@H]3CCCN(N3)C2=O)C(C)C)C1 (atropisomer, axis not shown) [Example A512] | 1000 to 10000 nM | 100 to 1000 nM | 1000 to 10000 nM | 100 to 1000 nM | 1000 to 10000 nM | 10 to 100 nM | 1000 to 10000 nM | < 5 µM | > 10 µM | > 10 µM | 
6 | C=CC(=O)N1CC[C@H](C(=O)N(C)[C@H](C(=O)N[C@H]2Cc3cccc(c3)-c3ccc4c(c3)c(c(-c3cc(C5=CCN(C)CC5)cnc3[C@H](C)OC)n4CC)CC(C)(C)COC(=O)[C@@H]3CCCN(N3)C2=O)C(C)C)C1 (atropisomer, axis not shown) [Example A513] | 1000 to 10000 nM | 10 to 100 nM | 1000 to 10000 nM | 10 to 100 nM | 100 to 1000 nM |  | 1000 to 10000 nM | < 5 µM | 1 to 10 µM | 1 to 10 µM | < 10 nM
7 | C=CC(=O)N1CC(F)(C(=O)N(C)[C@H](C(=O)N[C@H]2Cc3cccc(c3)-c3ccc4c(c3)c(c(-c3cccnc3[C@H](C)OC)n4CC)CC(C)(C)COC(=O)[C@@H]3CCCN(N3)C2=O)C(C)C)C1 (atropisomer, axis not shown) [Example A517] | 100 to 1000 nM | 10 to 100 nM | 100 to 1000 nM | 10 to 100 nM | 10 to 100 nM | < 10 nM | 100 to 1000 nM | < 5 µM | 1 to 10 µM | 1 to 10 µM | 
8 | C=CC(=O)N1CCC(F)(C(=O)N(C)[C@H](C(=O)N[C@H]2Cc3cccc(c3)-c3ccc4c(c3)c(c(-c3cccnc3[C@H](C)OC)n4CC)CC(C)(C)COC(=O)[C@@H]3CCCN(N3)C2=O)C(C)C)CC1 (atropisomer, axis not shown) [Example A518] | 100 to 1000 nM | 10 to 100 nM | 100 to 1000 nM | 10 to 100 nM | 100 to 1000 nM | < 10 nM | 100 to 1000 nM | < 5 µM | 1 to 10 µM | 0.1 to 1 µM | 
9 | C=CC(=O)Nc1cnc(C(=O)N(C)[C@H](C(=O)N[C@H]2Cc3cccc(c3)-c3ccc4c(c3)c(c(-c3cccnc3[C@H](C)OC)n4CC)CC(C)(C)COC(=O)[C@@H]3CCCN(N3)C2=O)C(C)C)n1C (atropisomer, axis not shown) [Example A524] | > 10000 nM | 100 to 1000 nM | > 10000 nM | 100 to 1000 nM | 100 to 1000 nM | 10 to 100 nM | > 10000 nM | < 5 µM | > 10 µM | > 10 µM | 
10 | C#CCn1c(-c2cccnc2[C@H](C)OC)c2c3cc(ccc31)-c1cccc(c1)C[C@H](NC(=O)[C@H](C(C)C)N(C)C(=O)[C@H]1CCN(C(=O)C=C)C1)C(=O)N1CCC[C@H](N1)C(=O)OCC(C)(C)C2 (atropisomer, axis not shown) [Example A530] | 1000 to 10000 nM | 100 to 1000 nM | 1000 to 10000 nM | 100 to 1000 nM | 1000 to 10000 nM | 10 to 100 nM | 1000 to 10000 nM | < 5 µM | > 10 µM | > 10 µM | 
11 | CCn1c(-c2cccnc2[C@H](C)OC)c2c3cc(ccc31)-c1cccc(c1)C[C@H](NC(=O)[C@H](C(C)C)N(C)C(=O)[C@H]1CCN(C(=O)C#CC3(N(C)C)CCOCC3)C1)C(=O)N1CCC[C@H](N1)C(=O)OCC(C)(C)C2 (atropisomer, axis not shown) [Example A532] | 1000 to 10000 nM | 10 to 100 nM | 1000 to 10000 nM | 10 to 100 nM | 1000 to 10000 nM | < 10 nM | 1000 to 10000 nM | < 5 µM | > 10 µM | > 10 µM | 
12 | CC#CC(=O)N1CC[C@@]2(CCN([C@H](C(=O)N[C@H]3Cc4nc(cs4)-c4ccc5c(c4)c(c(-c4cccnc4[C@H](C)OC)n5CC)CC(C)(C)COC(=O)[C@@H]4CCCN(N4)C3=O)C(C)C)C2=O)C1 (atropisomer, axis not shown) [Example A535] | > 10000 nM | 1000 to 10000 nM | 1000 to 10000 nM | 1000 to 10000 nM | 1000 to 10000 nM | 10 to 100 nM | > 10000 nM | < 5 µM | > 10 µM | > 10 µM | 
13 | C=CC(=O)N1CC[C@H](C(=O)N(C)[C@H](C(=O)N[C@H]2Cc3cc(O)cc(c3)-c3ccc4c(c3)c(c(-c3cc(CN(C)C)cnc3[C@H](C)OC)n4CC)CC(C)(C)COC(=O)[C@@H]3CCCN(N3)C2=O)C(C)C)C1 (atropisomer, axis not shown) [Example A536] | 100 to 1000 nM | 10 to 100 nM | 100 to 1000 nM | 10 to 100 nM | 100 to 1000 nM | 10 to 100 nM | 100 to 1000 nM | < 5 µM | 1 to 10 µM | 0.1 to 1 µM | 
14 | CCn1c(-c2cccnc2[C@H](C)OC)c2c3cc(ccc31)-c1cc(cc(C(F)F)c1)C[C@H](NC(=O)C(COC1CN(C(=O)C#CC(C)(C)N(C)C)C1)C(C)C)C(=O)N1CCC[C@H](N1)C(=O)OCC(C)(C)C2 (mixture of isomers) [Example A404] | > 10000 nM | 100 to 1000 nM | > 10000 nM | 100 to 1000 nM | > 10000 nM | 10 to 100 nM | > 10000 nM | < 5 µM | > 10 µM | > 10 µM | 
15 | C=CC(=O)N1CC(OCC(C(=O)N[C@H]2Cc3cccc(c3)-c3ccc4c(c3)c(c(-c3cccnc3[C@H](C)OC)n4CC(F)(F)F)CC(C)(C)COC(=O)[C@@H]3CCCN(N3)C2=O)C(C)C)C1 (mixture of isomers) [Example A453] | > 10000 nM | 1000 to 10000 nM | > 10000 nM | 1000 to 10000 nM | > 10000 nM | 100 to 1000 nM | > 10000 nM | < 5 µM | > 10 µM | > 10 µM | 
